Key:
3 mm calvaria defect [1] = conditions: murine model of calvarial bone regeneration; background statement; cited from earlier work
[2] = test system: adenosine A2A knockout (A2AKO) mice; test: in vivo bone formation by MicroCT in adenosine A2A knockout (A2AKO) mice, coated βTCP-HA scaffolds; conditions: 4 weeks post-surgery, CGS21680 10 mM
Source text: The remaining scaffold is shown in blue, and the new bone formation is shown in red.

3 mm calvaria defect [3] = conditions: application at the site of the bone defect
Source text: In vivo testing in mice: The 3-D scaffolds will be evaluated in a murine model using a 3 mm calvaria defect model.

Q: Which results are given for OCCN(CCO)c1nc(N2CCCCC2)c2nc(N(CCO)CCO)nc(N3CCCCC3)c2n1 [dipyridamole]?
A: bone regeneration (3 mm calvaria defect [1]): exponentially stimulates bone regeneration; new bone formation ([2]; collagen-coated βTCP-HA scaffolds, Dipyridamole 100 μM): did not differ from that induced in saline- or CGS21680-coated surfaces; new bone growth at the site of a bone defect (3 mm calvaria defect [3]): promotes new bone growth

Q: With CCNC(=O)[C@H]1O[C@@H](n2cnc3c(N)nc(NCCc4ccc(CCC(=O)O)cc4)nc32)[C@H](O)[C@@H]1O [CGS21680] as the compound, how does the resorption of scaffolds ([2]; compared with dipyridamole-coated scaffolds) read?
A: Its resorption of scaffolds is “greater”.
